Experimental data taken from the NIST ThermoML archive (doi:10.1021/acs.jced.5b00784).
± gives the expanded uncertainty stated by the source.

Tests used:
[1] = Liquid, isochoric method
[2] = xn = mol fraction of the nth substance listed; details: Liquid, Vibrating tube method, x2 = 0.377

FC(C(F)(F)F)C(F)(F)F [1,1,1,2,3,3,3-heptafluoropropane]
[1]
Details	mass density [kg/m3]
268.92 K, 1786 kPa	1509.3 ± 4.5
271.83 K, 3840 kPa	1508.5 ± 4.5
274.3 K, 5598 kPa	1508.1 ± 4.5
277.7 K, 8059 kPa	1507.7 ± 4.5
279.51 K, 839 kPa	1466.6 ± 4.4
280.8 K, 10284 kPa	1507.3 ± 4.5
281.32 K, 1993 kPa	1465.2 ± 4.4
283.42 K, 3331 kPa	1464.8 ± 4.4
283.61 K, 12288 kPa	1507 ± 4.5
285.37 K, 4577 kPa	1464.6 ± 4.4
286.43 K, 1142 kPa	1441.9 ± 4.3
286.67 K, 1203 kPa	1440.9 ± 4.3
286.7 K, 14495 kPa	1506.7 ± 4.5
287.36 K, 5848 kPa	1464.3 ± 4.4
288.43 K, 2193 kPa	1440 ± 4.3
289.14 K, 2747 kPa	1440.7 ± 4.3
289.31 K, 16361 kPa	1506.4 ± 4.5
289.41 K, 7162 kPa	1464.1 ± 4.4
290.44 K, 3367 kPa	1439.5 ± 4.3
291.46 K, 8474 kPa	1463 ± 4
292 K, 4466 kPa	1440.2 ± 4.3
292.45 K, 4875 kPa	1439.1 ± 4.3
293.4 K, 9717 kPa	1463.7 ± 4.4
294.61 K, 5846 kPa	1438.9 ± 4.3
294.98 K, 6251 kPa	1439.8 ± 4.3
295.29 K, 10924 kPa	1463.5 ± 4.4
296.72 K, 7101 kPa	1438 ± 4
297.18 K, 12136 kPa	1463.3 ± 4.4
297.85 K, 7978 kPa	1439.5 ± 4.3
298.7 K, 8273 kPa	1438.5 ± 4.3
299.38 K, 13527 kPa	1463.1 ± 4.4
300.87 K, 9562 kPa	1438.2 ± 4.3
300.89 K, 9788 kPa	1439.2 ± 4.3
301.4 K, 14839 kPa	1462.9 ± 4.4
302.74 K, 10686 kPa	1438.1 ± 4.3
302.94 K, 15829 kPa	1462.8 ± 4.4
303.82 K, 11544 kPa	1438.9 ± 4.3
304.8 K, 11916 kPa	1437.9 ± 4.3
306.88 K, 13381 kPa	1438.6 ± 4.3
306.95 K, 13205 kPa	1437.7 ± 4.3
309 K, 14427 kPa	1437.5 ± 4.3
310.05 K, 15281 kPa	1438.3 ± 4.3
311.05 K, 15654 kPa	1437.3 ± 4.3
312.85 K, 16727 kPa	1437.1 ± 4.3
312.95 K, 17014 kPa	1438 ± 4.3

COC(F)(F)C(F)(C(F)(F)F)C(F)(F)F [methyl nonafluoroisobutyl ether] + COC(F)(F)C(F)(F)C(F)(F)C(F)(F)F
[2]
Details	mass density [kg/m3]
275.02 K, 1984 kPa	1579.6 ± 4.7
277.09 K, 3723 kPa	1579.2 ± 4.7
279.26 K, 5543 kPa	1578.7 ± 4.8
279.43 K, 273 kPa	1564.5 ± 4.7
279.75 K, 524 kPa	1564.4 ± 4.7
279.75 K, 527 kPa	1564.4 ± 4.7
280.37 K, 972 kPa	1563.7 ± 4.7
280.46 K, 1101 kPa	1564.3 ± 4.7
280.94 K, 1442 kPa	1564.2 ± 4.7
281.34 K, 7289 kPa	1578.3 ± 4.8
281.55 K, 1942 kPa	1563.5 ± 4.7
281.92 K, 2278 kPa	1564 ± 4.7
281.94 K, 2249 kPa	1564 ± 4.7
282.38 K, 2648 kPa	1563.9 ± 4.7
283.21 K, 3315 kPa	1563.7 ± 4.7
283.5 K, 9101 kPa	1577.9 ± 4.8
283.65 K, 3673 kPa	1563.6 ± 4.7
284.04 K, 3949 kPa	1563.6 ± 4.7
284.44 K, 4290 kPa	1563.5 ± 4.7
285.1 K, 4838 kPa	1563.3 ± 4.7
285.42 K, 5083 kPa	1563.3 ± 4.7
285.49 K, 10769 kPa	1577.5 ± 4.8
285.94 K, 5471 kPa	1563.2 ± 4.7
286.26 K, 5744 kPa	1563.1 ± 4.7
286.26 K, 5757 kPa	1563.1 ± 4.7
286.61 K, 5994 kPa	1562.5 ± 4.7
286.95 K, 6330 kPa	1562.9 ± 4.7
287.26 K, 6535 kPa	1562.3 ± 4.7
287.54 K, 6765 kPa	1562.9 ± 4.7
287.54 K, 6789 kPa	1562.9 ± 4.7
287.59 K, 12510 kPa	1577.1 ± 4.8
287.68 K, 6872 kPa	1562.8 ± 4.7
288.04 K, 7178 kPa	1562.8 ± 4.7
288.9 K, 7893 kPa	1562.5 ± 4.7
289.56 K, 14156 kPa	1576.7 ± 4.8
289.6 K, 8425 kPa	1562.5 ± 4.7
289.6 K, 8448 kPa	1562.5 ± 4.7
289.6 K, 8462 kPa	1562.2 ± 4.7
289.72 K, 8502 kPa	1562.4 ± 4.7
291.62 K, 15869 kPa	1576.2 ± 4.8
291.67 K, 10052 kPa	1562 ± 4.7
291.67 K, 10070 kPa	1562 ± 4.7
291.67 K, 10101 kPa	1562 ± 4.7
292.61 K, 10815 kPa	1561.9 ± 4.7
292.7 K, 10872 kPa	1561.2 ± 4.7
293.44 K, 11481 kPa	1561.7 ± 4.7
293.52 K, 17446 kPa	1575.9 ± 4.8
294.31 K, 12183 kPa	1561.5 ± 4.7
295.32 K, 12982 kPa	1561.3 ± 4.7
295.59 K, 19153 kPa	1575.4 ± 4.8
296.29 K, 13751 kPa	1561.1 ± 4.7
298.57 K, 15560 kPa	1560.7 ± 4.7
299.64 K, 16411 kPa	1560.5 ± 4.7
300.65 K, 17215 kPa	1560.3 ± 4.7
301.34 K, 17761 kPa	1560.1 ± 4.7
302.6 K, 18751 kPa	1559.9 ± 4.7
302.6 K, 18786 kPa	1559.9 ± 4.7
